Test results: ChEMBL document CHEMBL1201862, “PubChem BioAssay data set” (2004)
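Method: 48-hour compound exposure of cells in 96-well plates, five concentrations, linear interpolation of endpoints. GI50 is the concentration that inhibits growth by half.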 Calls of active or inactive are those of the source. No stated cut-off is given here; in the data, active = GI50 up to about 1.1 µM and inactive = higher.

Experiments:
Assay in all cases: inhibition of tumour cell growth, NCI panel, 48 h
786-0 = system: 786-0
A498 = system: A498
A549 = system: A549
ACHN = system: ACHN
BT-549 = system: BT-549
CAKI-1 = system: CAKI-1
CCRF-CEM = system: CCRF-CEM
COLO 205 = system: COLO 205
DU-145 = system: DU-145
EKVX = system: EKVX
HCC 2998 = system: HCC 2998
HCT-116 = system: HCT-116
HCT-15 = system: HCT-15
HL-60 = system: HL-60
HOP-62 = system: HOP-62
HOP-92 = system: HOP-92
HT-29 = system: HT-29
Hs-578T = system: Hs-578T
IGROV-1 = system: IGROV-1
K562 = system: K562
KM12 = system: KM12
LOX IMVI = system: LOX IMVI
M14 = system: M14
MCF7 = system: MCF7
MDA-MB-231 = system: MDA-MB-231
MDA-MB-435 = system: MDA-MB-435
MDA-N = system: MDA-N
MOLT-4 = system: MOLT-4
Malme-3M = system: Malme-3M
NCI-H226 = system: NCI-H226
NCI-H23 = system: NCI-H23
NCI-H460 = system: NCI-H460
NCI-H522 = system: NCI-H522
NCI/ADR-RES = system: NCI/ADR-RES
OVCAR-3 = system: OVCAR-3
OVCAR-4 = system: OVCAR-4
OVCAR-5 = system: OVCAR-5
OVCAR-8 = system: OVCAR-8
PC-3 = system: PC-3
RPMI-8226 = system: RPMI-8226
RXF 393 = system: RXF 393
SF-268 = system: SF-268
SF-295 = system: SF-295
SF-539 = system: SF-539
SK-MEL-28 = system: SK-MEL-28
SK-MEL-2 = system: SK-MEL-2
SK-MEL-5 = system: SK-MEL-5
SK-OV-3 = system: SK-OV-3
SN12C = system: SN12C
SNB-19 = system: SNB-19
SNB-75 = system: SNB-75
SW-620 = system: SW-620
T47D = system: T47D
TK-10 = system: TK-10
U-251 = system: U-251
UACC-257 = system: UACC-257
UACC-62 = system: UACC-62
UO-31 = system: UO-31

**Q.** What does the source list for `O=C1Nc2ccc(Br)cc2C1=Nc1cccnc1`?
**A.** GI50 (786-0): 20.5 µM (inactive); GI50 (A498): > 100 µM (inactive); GI50 (A549): 48.4 µM (inactive); GI50 (ACHN): 18.3 µM (inactive); GI50 (BT-549): 17.1 µM (inactive); GI50 (CAKI-1): 20.7 µM (inactive); GI50 (CCRF-CEM): 16.2 µM (inactive); GI50 (COLO 205): 67.3 µM (inactive); GI50 (DU-145): 33 µM (inactive); GI50 (EKVX): 24.3 µM (inactive); GI50 (HCC 2998): 20.6 µM (inactive); GI50 (HCT-116): 20.1 µM (inactive); GI50 (HCT-15): 22.1 µM; GI50 (HL-60): 11.8 µM (inactive); GI50 (HOP-62): 25 µM (inactive); GI50 (HOP-92): > 100 µM (inactive); GI50 (HT-29): 21 µM (inactive); GI50 (Hs-578T): 19.9 µM (inactive); GI50 (IGROV-1): 19 µM (inactive); GI50 (K562): 20.1 µM (inactive); GI50 (KM12): 27.4 µM (inactive); GI50 (LOX IMVI): 15.7 µM (inactive); GI50 (M14): 15.7 µM (inactive); GI50 (MCF7): 22.7 µM (inactive); GI50 (MDA-MB-231): 18.1 µM (inactive); GI50 (MDA-MB-435): 13 µM (inactive); GI50 (MDA-N): 17 µM (inactive); GI50 (MOLT-4): 22.5 µM (inactive); GI50 (Malme-3M): 22.3 µM (inactive); GI50 (NCI-H226): 31.4 µM (inactive); GI50 (NCI-H23): 20.7 µM (inactive); GI50 (NCI-H460): > 100 µM (inactive); GI50 (NCI-H522): 13.2 µM (inactive); GI50 (NCI/ADR-RES): 24.8 µM (inactive); GI50 (OVCAR-3): 18.9 µM (inactive); GI50 (OVCAR-4): 7.23 µM (inactive); GI50 (OVCAR-5): 29.3 µM (inactive); GI50 (OVCAR-8): 25.3 µM (inactive); GI50 (PC-3): 18.1 µM (inactive); GI50 (RPMI-8226): 21.4 µM (inactive); GI50 (RXF 393): 15.2 µM (inactive); GI50 (SF-268): 27.7 µM (inactive); GI50 (SF-295): 50.4 µM (inactive); GI50 (SF-539): 16.5 µM (inactive); GI50 (SK-MEL-28): 19.5 µM (inactive); GI50 (SK-MEL-2): 23.4 µM (inactive); GI50 (SK-MEL-5): 17.8 µM (inactive); GI50 (SK-OV-3): 47.5 µM (inactive); GI50 (SN12C): 18.4 µM (inactive); GI50 (SNB-19): 41.2 µM (inactive); GI50 (SNB-75): > 100 µM (inactive); GI50 (SW-620): 17.8 µM (inactive); GI50 (T47D): 20.6 µM (inactive); GI50 (TK-10): 57.5 µM (inactive); GI50 (U-251): 12.4 µM (inactive); GI50 (UACC-257): 21.4 µM (inactive); GI50 (UACC-62): 17.3 µM (inactive); GI50 (UO-31): 11.1 µM (inactive)
